In the kinase profiling compilation of Christmann-Franck et al. (2016):

What was measured:
Assay in all cases: radiometric filter-binding kinase assay, Kinase HotSpot
Settings in all cases: compound 0.5 µM; ATP 10 µM
GRK7 (human) = GRK7 (human) (UniProt Q8WTQ7)
FLT1 (human) = FLT1 (human) (UniProt P17948)
EPHA7 (human) = EPHA7 (human) (UniProt Q15375)
MAP4K5 (human) = MAP4K5 (human) (UniProt Q9Y4K4)
TSSK1B (human) = TSSK1B (human) (UniProt Q9BXA7)
FRK (human) = FRK (human) (UniProt P42685)
LCK (human) = LCK (human) (UniProt P06239)
TAOK2 (human) = TAOK2 (human) (UniProt Q9UL54)
EPHA3 (human) = EPHA3 (human) (UniProt P29320)
MUSK (human) = MUSK (human) (UniProt O15146)
STK39 (human) = STK39 (human) (UniProt Q9UEW8)
MAPKAPK5 (human) = MAPKAPK5 (human) (UniProt Q8IW41)
Chain of MAPKAPK5 (human) (Q8IW41 whole entry, looked up): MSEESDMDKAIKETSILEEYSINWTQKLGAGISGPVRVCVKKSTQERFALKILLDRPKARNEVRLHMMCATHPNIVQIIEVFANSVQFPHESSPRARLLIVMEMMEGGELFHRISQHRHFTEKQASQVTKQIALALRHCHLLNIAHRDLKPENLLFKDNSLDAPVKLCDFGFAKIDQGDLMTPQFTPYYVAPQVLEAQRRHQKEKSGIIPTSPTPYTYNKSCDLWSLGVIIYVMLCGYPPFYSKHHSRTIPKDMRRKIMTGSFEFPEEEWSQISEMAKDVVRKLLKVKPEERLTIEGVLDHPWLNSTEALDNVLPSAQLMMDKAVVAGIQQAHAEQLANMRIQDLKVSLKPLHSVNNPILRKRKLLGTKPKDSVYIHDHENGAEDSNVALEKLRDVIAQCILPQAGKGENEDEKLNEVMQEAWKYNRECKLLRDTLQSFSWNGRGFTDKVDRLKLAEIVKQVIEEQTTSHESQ

MARK1 (human) = MARK1 (human) (UniProt Q9P0L2)
HIPK2 (human) = HIPK2 (human) (UniProt Q9H2X6)
ZAP70 (human) = ZAP70 (human) (UniProt P43403)
CDK4 CCND3 (human) = CDK4 CCND3 (human) (UniProt P30281+P11802)
MAPKAPK3 (human) = MAPKAPK3 (human) (UniProt Q16644)
PRKCZ (human) = PRKCZ (human) (UniProt Q05513)
CAMK1D (human) = CAMK1D (human) (UniProt Q8IU85)
NLK (human) = NLK (human) (UniProt Q9UBE8)
MINK1 (human) = MINK1 (human) (UniProt Q8N4C8)
PHKG1 (human) = PHKG1 (human) (UniProt Q16816)
Chain of PHKG1 (human) (Q16816 whole entry, looked up): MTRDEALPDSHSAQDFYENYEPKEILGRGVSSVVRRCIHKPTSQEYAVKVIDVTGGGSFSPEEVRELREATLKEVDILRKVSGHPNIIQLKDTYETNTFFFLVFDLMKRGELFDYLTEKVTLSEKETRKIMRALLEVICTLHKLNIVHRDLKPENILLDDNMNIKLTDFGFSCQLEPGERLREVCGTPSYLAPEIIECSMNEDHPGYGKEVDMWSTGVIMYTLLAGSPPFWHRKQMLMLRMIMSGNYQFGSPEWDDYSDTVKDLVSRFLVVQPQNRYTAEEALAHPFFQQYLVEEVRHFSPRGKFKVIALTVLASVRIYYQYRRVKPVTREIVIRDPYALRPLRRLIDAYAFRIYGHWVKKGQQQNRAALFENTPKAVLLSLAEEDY

STK33 (human) = STK33 (human) (UniProt Q9BYT3)
GSK3A (human) = GSK3A (human) (UniProt P49840)
CSF1R (human) = CSF1R (human) (UniProt P07333)
ACVRL1 (human) = ACVRL1 (human) (UniProt P37023)
AKT1 (human) = AKT1 (human) (UniProt P31749)
MST1R (human) = MST1R (human) (UniProt Q04912)
GSG2 (human) = GSG2 (human) (UniProt Q8TF76)
Chain of GSG2 (human) (Q8TF76 whole entry, looked up): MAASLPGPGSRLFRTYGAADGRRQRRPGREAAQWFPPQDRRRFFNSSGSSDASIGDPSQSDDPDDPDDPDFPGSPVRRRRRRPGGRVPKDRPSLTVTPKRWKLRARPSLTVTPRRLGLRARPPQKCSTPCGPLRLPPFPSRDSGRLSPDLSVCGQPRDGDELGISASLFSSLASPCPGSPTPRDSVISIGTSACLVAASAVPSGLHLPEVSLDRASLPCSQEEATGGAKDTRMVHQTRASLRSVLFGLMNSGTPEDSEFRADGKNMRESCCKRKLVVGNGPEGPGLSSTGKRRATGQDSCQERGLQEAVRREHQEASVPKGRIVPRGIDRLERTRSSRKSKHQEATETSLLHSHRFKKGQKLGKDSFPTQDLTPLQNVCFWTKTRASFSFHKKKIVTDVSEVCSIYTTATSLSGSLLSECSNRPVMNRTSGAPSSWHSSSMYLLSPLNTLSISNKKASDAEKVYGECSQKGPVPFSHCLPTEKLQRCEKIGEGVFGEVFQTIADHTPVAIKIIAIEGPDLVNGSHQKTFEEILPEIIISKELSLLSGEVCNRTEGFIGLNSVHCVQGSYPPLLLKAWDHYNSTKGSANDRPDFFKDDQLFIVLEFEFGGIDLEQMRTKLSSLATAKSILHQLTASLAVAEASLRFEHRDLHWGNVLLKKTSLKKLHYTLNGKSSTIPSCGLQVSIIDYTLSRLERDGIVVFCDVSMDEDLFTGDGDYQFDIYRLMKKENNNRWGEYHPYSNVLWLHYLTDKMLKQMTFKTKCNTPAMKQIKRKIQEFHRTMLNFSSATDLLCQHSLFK

PAK4 (human) = PAK4 (human) (UniProt O96013)
SRC (human) = SRC (human) (UniProt P12931)
Chain of SRC (human) (P12931 whole entry, looked up): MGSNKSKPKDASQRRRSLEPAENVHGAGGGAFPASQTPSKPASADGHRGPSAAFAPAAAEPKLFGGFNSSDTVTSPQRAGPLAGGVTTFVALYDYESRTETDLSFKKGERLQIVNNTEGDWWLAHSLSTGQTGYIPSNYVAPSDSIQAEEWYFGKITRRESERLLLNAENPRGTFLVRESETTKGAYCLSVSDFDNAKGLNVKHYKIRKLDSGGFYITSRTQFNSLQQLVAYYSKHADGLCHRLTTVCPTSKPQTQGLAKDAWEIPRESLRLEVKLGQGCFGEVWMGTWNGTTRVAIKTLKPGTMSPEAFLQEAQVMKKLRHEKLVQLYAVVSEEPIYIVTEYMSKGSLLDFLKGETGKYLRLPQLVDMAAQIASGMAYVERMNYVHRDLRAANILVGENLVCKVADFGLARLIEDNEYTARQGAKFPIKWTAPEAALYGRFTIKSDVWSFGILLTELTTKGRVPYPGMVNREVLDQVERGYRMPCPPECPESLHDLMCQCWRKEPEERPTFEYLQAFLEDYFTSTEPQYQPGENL

DYRK3 (human) = DYRK3 (human) (UniProt O43781)
CAMK4 (human) = CAMK4 (human) (UniProt Q16566)
TEC (human) = TEC (human) (UniProt P42680)
Chain of TEC (human) (P42680 whole entry, looked up): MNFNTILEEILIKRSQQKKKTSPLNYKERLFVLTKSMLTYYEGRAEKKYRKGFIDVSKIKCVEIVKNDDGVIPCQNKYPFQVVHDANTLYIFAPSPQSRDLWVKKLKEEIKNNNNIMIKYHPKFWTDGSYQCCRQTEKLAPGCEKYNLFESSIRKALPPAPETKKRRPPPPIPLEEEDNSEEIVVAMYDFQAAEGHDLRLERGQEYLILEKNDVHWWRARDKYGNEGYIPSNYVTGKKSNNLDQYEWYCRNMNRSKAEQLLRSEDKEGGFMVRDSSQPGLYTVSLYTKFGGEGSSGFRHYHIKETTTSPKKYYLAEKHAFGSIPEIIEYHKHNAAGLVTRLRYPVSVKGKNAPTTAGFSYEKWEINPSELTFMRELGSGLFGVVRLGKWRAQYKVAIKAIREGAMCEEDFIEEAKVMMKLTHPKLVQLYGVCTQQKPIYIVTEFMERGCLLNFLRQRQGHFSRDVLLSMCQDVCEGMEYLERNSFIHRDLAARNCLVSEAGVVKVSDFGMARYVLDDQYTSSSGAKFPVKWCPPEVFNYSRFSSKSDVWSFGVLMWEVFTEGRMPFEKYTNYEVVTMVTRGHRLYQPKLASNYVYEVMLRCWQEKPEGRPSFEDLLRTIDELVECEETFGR

EPHA1 (human) = EPHA1 (human) (UniProt P21709)
NEK9 (human) = NEK9 (human) (UniProt Q8TD19)
RPS6KA6 KD1 KD2 (human) = RPS6KA6 KD1 KD2 (human) (UniProt Q9UK32)
PKN2 (human) = PKN2 (human) (UniProt Q16513)
TAOK1 (human) = TAOK1 (human) (UniProt Q7L7X3)
Chain of TAOK1 (human) (Q7L7X3 whole entry, looked up): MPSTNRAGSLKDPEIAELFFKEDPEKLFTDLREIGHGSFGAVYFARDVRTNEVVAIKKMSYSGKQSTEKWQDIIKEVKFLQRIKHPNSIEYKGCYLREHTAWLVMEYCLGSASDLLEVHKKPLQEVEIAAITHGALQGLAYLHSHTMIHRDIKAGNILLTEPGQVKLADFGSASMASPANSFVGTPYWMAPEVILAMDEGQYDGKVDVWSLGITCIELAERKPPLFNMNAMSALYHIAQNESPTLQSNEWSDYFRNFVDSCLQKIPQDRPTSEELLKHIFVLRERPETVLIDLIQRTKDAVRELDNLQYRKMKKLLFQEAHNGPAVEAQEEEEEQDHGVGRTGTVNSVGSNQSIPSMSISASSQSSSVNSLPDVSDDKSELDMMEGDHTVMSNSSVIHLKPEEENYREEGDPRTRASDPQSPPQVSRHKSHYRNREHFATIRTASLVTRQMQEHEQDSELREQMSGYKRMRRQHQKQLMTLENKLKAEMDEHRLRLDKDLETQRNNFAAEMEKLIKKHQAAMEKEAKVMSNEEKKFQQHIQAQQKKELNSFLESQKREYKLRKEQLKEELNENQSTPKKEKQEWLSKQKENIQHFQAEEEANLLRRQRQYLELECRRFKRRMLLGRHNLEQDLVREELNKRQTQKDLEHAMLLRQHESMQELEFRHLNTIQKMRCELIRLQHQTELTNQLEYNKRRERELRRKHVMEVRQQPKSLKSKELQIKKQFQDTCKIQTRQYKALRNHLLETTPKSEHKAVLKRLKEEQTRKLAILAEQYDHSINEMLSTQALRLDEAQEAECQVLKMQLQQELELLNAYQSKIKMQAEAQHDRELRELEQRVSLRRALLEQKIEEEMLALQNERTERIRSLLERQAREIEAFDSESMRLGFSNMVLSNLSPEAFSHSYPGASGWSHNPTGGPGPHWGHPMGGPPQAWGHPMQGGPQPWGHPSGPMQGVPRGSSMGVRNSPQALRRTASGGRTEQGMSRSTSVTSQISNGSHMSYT

ROS1 (human) = ROS1 (human) (UniProt P08922)
OXSR1 (human) = OXSR1 (human) (UniProt O95747)
ALK (human) = ALK (human) (UniProt Q9UM73)

Chain of TSSK1B (human) (Q9BXA7 whole entry, looked up): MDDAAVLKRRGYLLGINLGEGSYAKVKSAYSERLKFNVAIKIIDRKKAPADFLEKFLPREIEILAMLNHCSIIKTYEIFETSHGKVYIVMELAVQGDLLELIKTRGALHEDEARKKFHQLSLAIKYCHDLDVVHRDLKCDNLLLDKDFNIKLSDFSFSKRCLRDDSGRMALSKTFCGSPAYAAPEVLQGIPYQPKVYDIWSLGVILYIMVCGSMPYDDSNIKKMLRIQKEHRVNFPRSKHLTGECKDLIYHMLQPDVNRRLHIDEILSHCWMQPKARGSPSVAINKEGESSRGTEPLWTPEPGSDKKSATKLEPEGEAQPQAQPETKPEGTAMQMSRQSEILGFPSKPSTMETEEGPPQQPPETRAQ
Chain of FRK (human) (P42685 whole entry, looked up): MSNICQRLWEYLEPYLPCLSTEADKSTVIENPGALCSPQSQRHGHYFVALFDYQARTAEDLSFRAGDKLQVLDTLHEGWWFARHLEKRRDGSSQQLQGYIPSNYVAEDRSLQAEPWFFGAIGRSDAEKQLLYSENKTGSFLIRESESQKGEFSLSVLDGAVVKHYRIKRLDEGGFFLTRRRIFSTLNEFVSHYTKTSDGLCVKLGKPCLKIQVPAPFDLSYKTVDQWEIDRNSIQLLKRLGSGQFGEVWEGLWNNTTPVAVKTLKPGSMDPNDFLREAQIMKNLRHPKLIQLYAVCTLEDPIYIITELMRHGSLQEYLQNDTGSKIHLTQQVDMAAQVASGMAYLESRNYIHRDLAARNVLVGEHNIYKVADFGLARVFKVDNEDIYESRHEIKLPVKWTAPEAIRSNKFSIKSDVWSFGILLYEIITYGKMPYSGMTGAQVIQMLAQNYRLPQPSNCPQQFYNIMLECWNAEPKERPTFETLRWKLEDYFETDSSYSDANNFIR

## CCCNC(=O)Nc1ccc(Oc2ncnc3cc(OC)c(OC)cc23)cc1Cl
GRK7 (human)
  residual activity: 94.7%
FLT1 (human)
  residual activity: 65.2%
EPHA7 (human)
  residual activity: 86.3%
MAP4K5 (human)
  residual activity: 54.6%
TSSK1B (human)
  residual activity: 80.4%
FRK (human)
  residual activity: 87.2%
LCK (human)
  residual activity: 81.8%
TAOK2 (human)
  residual activity: 94.5%
EPHA3 (human)
  residual activity: 98.5%
MUSK (human)
  residual activity: 101%
STK39 (human)
  residual activity: 88%
MAPKAPK5 (human)
  residual activity: 92.2%
MARK1 (human)
  residual activity: 97.6%
HIPK2 (human)
  residual activity: 97.9%
ZAP70 (human)
  residual activity: 102%
CDK4 CCND3 (human)
  residual activity: 101%
MAPKAPK3 (human)
  residual activity: 95.8%
PRKCZ (human)
  residual activity: 102%
CAMK1D (human)
  residual activity: 96.8%
NLK (human)
  residual activity: 90.7%
MINK1 (human)
  residual activity: 90.1%
PHKG1 (human)
  residual activity: 91.3%
STK33 (human)
  residual activity: 88.1%
GSK3A (human)
  residual activity: 98.8%
CSF1R (human)
  residual activity: 51.1%
ACVRL1 (human)
  residual activity: 100%
AKT1 (human)
  residual activity: 93%
MST1R (human)
  residual activity: 89.3%
GSG2 (human)
  residual activity: 99.1%
PAK4 (human)
  residual activity: 95.7%
SRC (human)
  residual activity: 98.6%
DYRK3 (human)
  residual activity: 99.7%
CAMK4 (human)
  residual activity: 99.1%
TEC (human)
  residual activity: 119%
EPHA1 (human)
  residual activity: 96.9%
NEK9 (human)
  residual activity: 83.3%
RPS6KA6 KD1 KD2 (human)
  residual activity: 102%
PKN2 (human)
  residual activity: 99.2%
TAOK1 (human)
  residual activity: 92.2%
ROS1 (human)
  residual activity: 97.6%
OXSR1 (human)
  residual activity: 96.5%

## Clc1ccc(Nc2nnc(Cc3ccncc3)c3ccccc23)cc1
GRK7 (human)
  residual activity: 92.2%
EPHA7 (human)
  residual activity: 90.5%
MAP4K5 (human)
  residual activity: 101%
TSSK1B (human)
  residual activity: 94.8%
FRK (human)
  residual activity: 95.4%
LCK (human)
  residual activity: 87%
TAOK2 (human)
  residual activity: 85.4%
EPHA3 (human)
  residual activity: 98.8%
MUSK (human)
  residual activity: 105%
STK39 (human)
  residual activity: 92.6%
MAPKAPK5 (human)
  residual activity: 97.8%
MARK1 (human)
  residual activity: 124%
HIPK2 (human)
  residual activity: 101%
ZAP70 (human)
  residual activity: 96.6%
CDK4 CCND3 (human)
  residual activity: 102%
MAPKAPK3 (human)
  residual activity: 98.9%
PRKCZ (human)
  residual activity: 69.5%
CAMK1D (human)
  residual activity: 108%
NLK (human)
  residual activity: 99.3%
MINK1 (human)
  residual activity: 104%
PHKG1 (human)
  residual activity: 94.2%
STK33 (human)
  residual activity: 94.2%
GSK3A (human)
  residual activity: 103%
ACVRL1 (human)
  residual activity: 98.5%
AKT1 (human)
  residual activity: 103%
MST1R (human)
  residual activity: 91.6%
GSG2 (human)
  residual activity: 70%
ALK (human)
  residual activity: 102%
PAK4 (human)
  residual activity: 95.8%
SRC (human)
  residual activity: 104%
DYRK3 (human)
  residual activity: 95.9%
CAMK4 (human)
  residual activity: 93.4%
TEC (human)
  residual activity: 137%
EPHA1 (human)
  residual activity: 96%
NEK9 (human)
  residual activity: 98.4%
RPS6KA6 KD1 KD2 (human)
  residual activity: 99.7%
PKN2 (human)
  residual activity: 99.9%
TAOK1 (human)
  residual activity: 98.7%
ROS1 (human)
  residual activity: 94.7%
OXSR1 (human)
  residual activity: 101%

## O=c1cc(N2CCNCC2)oc2c(-c3ccccc3)cccc12
GRK7 (human)
  residual activity: 114%
FLT1 (human)
  residual activity: 86.6%
EPHA7 (human)
  residual activity: 102%
TSSK1B (human)
  residual activity: 89.5%
FRK (human)
  residual activity: 105%
LCK (human)
  residual activity: 104%
TAOK2 (human)
  residual activity: 98.3%
EPHA3 (human)
  residual activity: 88.5%
MUSK (human)
  residual activity: 103%
STK39 (human)
  residual activity: 88.5%
MAPKAPK5 (human)
  residual activity: 104%
MARK1 (human)
  residual activity: 99.3%
HIPK2 (human)
  residual activity: 108%
ZAP70 (human)
  residual activity: 102%
CDK4 CCND3 (human)
  residual activity: 101%
PRKCZ (human)
  residual activity: 116%
CAMK1D (human)
  residual activity: 82%
NLK (human)
  residual activity: 98.8%
MINK1 (human)
  residual activity: 97%
PHKG1 (human)
  residual activity: 90.7%
STK33 (human)
  residual activity: 86.1%
GSK3A (human)
  residual activity: 99.7%
CSF1R (human)
  residual activity: 108%
ACVRL1 (human)
  residual activity: 106%
AKT1 (human)
  residual activity: 103%
MST1R (human)
  residual activity: 96%
GSG2 (human)
  residual activity: 94.3%
ALK (human)
  residual activity: 83.8%
PAK4 (human)
  residual activity: 81.1%
SRC (human)
  residual activity: 91.2%
DYRK3 (human)
  residual activity: 97.8%
CAMK4 (human)
  residual activity: 104%
TEC (human)
  residual activity: 99.8%
EPHA1 (human)
  residual activity: 112%
NEK9 (human)
  residual activity: 102%
RPS6KA6 KD1 KD2 (human)
  residual activity: 99%
PKN2 (human)
  residual activity: 99.5%
TAOK1 (human)
  residual activity: 90.8%
ROS1 (human)
  residual activity: 99.2%
OXSR1 (human)
  residual activity: 85.6%
